Measurements taken from article PMC8296573, “Synthesis and Biological Evaluation of Fingolimod Derivatives as Antibacterial Agents” (ACS Omega, 2021).
In brackets after ≈: the same amount, converted by molar mass. Where two headings read alike, the source gives them in different places.

Columns and labels:
P. aeruginosa ATCC 9027 = test: Antibacterial activity, pre-exposure; type: cell-based, Pseudomonas aeruginosa; settings: for Average inhibition %, biofilms viability / Average inhibition %, planktonic cells viability / inhibition at 50 µM / inhibition at 100 µM / inhibition at 150 µM / inhibition at 200 µM: P. aeruginosa ATCC 9027, pre-exposure, ± SD; for MIC / inhibition at 50 µM / inhibition at 100 µM / inhibition at 150 µM / inhibition at 200 µM: Pseudomonas aeruginosa; for inhibition at 50 µM / inhibition at 100 µM / inhibition at 150 µM / inhibition at 200 µM: ATCC9027
Summary of the method: (§1)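 Bacteria and compound were co-incubated from the start for 18 h at 37 °C, 220 rpm. Planktonic cells scored by turbidity plus resazurin reduction; washed biofilms scored by 20 μM resazurin (30, 60, 90 min for S. aureus, A. baumannii, P. aeruginosa) and ethanol-fixed crystal violet staining.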

S. aureus ATCC 25923 [1] = test: Antibacterial activity, post-exposure on preformed 18-h-old biofilms; type: cell-based, Staphylococcus aureus; settings: ± SD; for inhibition at 25 µM / inhibition at 50 µM / inhibition at 100 µM / inhibition at 200 µM: Staphylococcus aureus; for inhibition at 25 µM: ATCC25923, 25 µM; for inhibition at 50 µM: ATCC25923, 50 µM; for inhibition at 100 µM: ATCC25923, 100 µM; for inhibition at 200 µM: ATCC25923, 200 µM
Summary of the method: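 Compounds were applied to preformed 18-h biofilms after medium change and left 24 h. Read-outs: planktonic OD plus resazurin fluorescence (20 μM), biofilm metabolic activity by resazurin 30 min at 37 °C, then biomass by crystal violet absorbance at 595 nm after ethanol fixation.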

S. aureus ATCC 25923 [2] = test: Antibacterial activity, pre-exposure (planktonic cells and biofilm formation); type: cell-based, Staphylococcus aureus; settings: for MIC / inhibition at 5 µM / inhibition at 10 µM / inhibition at 15 µM / inhibition at 25 µM: Staphylococcus aureus, ATCC25923; for inhibition at 5 µM / inhibition at 10 µM / inhibition at 15 µM / inhibition at 25 µM / Average inhibition %, biofilms viability / Average inhibition %, planktonic cells viability: pre-exposure, ± SD
Summary of the method: as §1

A. baumannii NCTC 13423 = test: Antibacterial activity, pre-exposure; type: cell-based, Acinetobacter baumannii; settings: for Average inhibition %, biofilms viability / Average inhibition %, planktonic cells viability / inhibition at 10 µM / inhibition at 15 µM / inhibition at 25 µM / inhibition at 50 µM: A. baumannii NCTC 13423, pre-exposure, ± SD; for inhibition at 10 µM / inhibition at 15 µM / inhibition at 25 µM / inhibition at 50 µM / MIC: Acinetobacter baumannii, NCTC13423
Summary of the method: as §1

[3] = 50 µM, read-out: Average inhibition %, biofilms biomass
[4] = 50 µM, read-out: Average inhibition %, planktonic cells turbidity
[5] = read-out: Average inhibition %, biofilms biomass
[6] = read-out: Average inhibition %, planktonic cells turbidity
[7] = 10 µM, read-out: Average inhibition %, biofilms biomass
[8] = 10 µM, read-out: Average inhibition %, planktonic cells turbidity
[9] = 15 µM, read-out: Average inhibition %, biofilms biomass
[10] = 15 µM, read-out: Average inhibition %, planktonic cells turbidity
[11] = 25 µM, read-out: Average inhibition %, biofilms biomass
[12] = 25 µM, read-out: Average inhibition %, planktonic cells turbidity

For CCCCCCCCc1cccc(CCC(N)(CO)CO)c1 [Compound 43, 2-Amino-2-(3-octylphenethyl)propane-1,3-diol], the “Average inhibition %, biofilms viability” value (P. aeruginosa ATCC 9027; 50 µM) was 53.1 ± 41.1%, the “Average inhibition %, planktonic cells viability” value (P. aeruginosa ATCC 9027; 50 µM) was 98.1 ± 0.5% and the “Average inhibition %, biofilms viability” value (P. aeruginosa ATCC 9027; 100 µM) was 99.2 ± 2%. For the same compound, the “Average inhibition %, planktonic cells viability” value (P. aeruginosa ATCC 9027; 100 µM) was 99 ± 1.3%, the “Average inhibition %, biofilms viability” value (P. aeruginosa ATCC 9027; 150 µM) was 99.9 ± 0.9% and the “Average inhibition %, planktonic cells viability” value (P. aeruginosa ATCC 9027; 150 µM) was 99.4 ± 0.7%. The “Average inhibition %, biofilms viability” value (P. aeruginosa ATCC 9027; 200 µM) was 100.3 ± 0.5%, the “Average inhibition %, planktonic cells viability” value (P. aeruginosa ATCC 9027; 200 µM) was 99.9 ± 0.1% and the MIC (P. aeruginosa ATCC 9027; ATCC9027, pre-exposure, Inactive = no activity up to 200 μM, > = some inhibition but no MIC reached, read-out: MIC P. aeruginosa ATCC 9027) was 50 to 100 µM (≈ 15.4 to 30.7 µg/mL). For the same compound, the MIC (P. aeruginosa ATCC 9027; ATCC9027, supplementary molecular formula strings sheet, read-out: MIC (P. aeruginosa)) was 50 to 100 µM (≈ 15.4 to 30.7 µg/mL), the inhibition at 50 µM (P. aeruginosa ATCC 9027; [3]) was 52.1 ± 19.8% and the inhibition at 50 µM (P. aeruginosa ATCC 9027; [4]) was 94.5 ± 0.8%. The inhibition at 100 µM (P. aeruginosa ATCC 9027; 100 µM, read-out: Average inhibition %, biofilms biomass) was 82.4 ± 25.2%, the inhibition at 100 µM (P. aeruginosa ATCC 9027; 100 µM, read-out: Average inhibition %, planktonic cells turbidity) was 97.2 ± 2.5% and the inhibition at 150 µM (P. aeruginosa ATCC 9027; 150 µM, read-out: Average inhibition %, biofilms biomass) was 89.4 ± 13.3%. The inhibition at 150 µM (P. aeruginosa ATCC 9027; 150 µM, read-out: Average inhibition %, planktonic cells turbidity) was 96.9 ± 1.2%, the inhibition at 200 µM (P. aeruginosa ATCC 9027; 200 µM, read-out: Average inhibition %, biofilms biomass) was 94.3 ± 1.4% and the inhibition at 200 µM (P. aeruginosa ATCC 9027; 200 µM, read-out: Average inhibition %, planktonic cells turbidity) was 97.5 ± 0.3%. The “Average inhibition %, biofilms viability” value (S. aureus ATCC 25923 [1]; 25 µM) was 14.4 ± 14%, the “Average inhibition %, planktonic cells viability” value (S. aureus ATCC 25923 [1]; 25 µM) was 0 ± 0% and the “Average inhibition %, biofilms viability” value (S. aureus ATCC 25923 [1]; 50 µM) was 23.1 ± 5.1%. For the same compound, the “Average inhibition %, planktonic cells viability” value (S. aureus ATCC 25923 [1]; 50 µM) was 12.8 ± 18.3%, the “Average inhibition %, biofilms viability” value (S. aureus ATCC 25923 [1]; 100 µM) was 35.4 ± 15.6% and the “Average inhibition %, planktonic cells viability” value (S. aureus ATCC 25923 [1]; 100 µM) was 61.4 ± 27.6%. For the same compound, the “Average inhibition %, biofilms viability” value (S. aureus ATCC 25923 [1]; 200 µM) was 75.7 ± 18.5%, the “Average inhibition %, planktonic cells viability” value (S. aureus ATCC 25923 [1]; 200 µM) was 98 ± 3.3% and the inhibition at 25 µM (S. aureus ATCC 25923 [1]; [5]) was 38.4 ± 9.2%. It also gave an inhibition at 25 µM (S. aureus ATCC 25923 [1]; [6]) of 6.1 ± 8%, an inhibition at 50 µM (S. aureus ATCC 25923 [1]; [5]) of 50.1 ± 4.6% and an inhibition at 50 µM (S. aureus ATCC 25923 [1]; [6]) of 33.5 ± 18.7%. It also gave an inhibition at 100 µM (S. aureus ATCC 25923 [1]; [5]) of 64.7 ± 9.1%, an inhibition at 100 µM (S. aureus ATCC 25923 [1]; [6]) of 48.9 ± 21.5% and an inhibition at 200 µM (S. aureus ATCC 25923 [1]; [5]) of 79.9 ± 12%. For the same compound, the inhibition at 200 µM (S. aureus ATCC 25923 [1]; [6]) was 79.1 ± 6.3%, the MIC (S. aureus ATCC 25923 [2]; lowest concentration with no visible growth (>90% inhibition of turbidity and viability of planktonic cells), 18 h, read-out: MIC S. aureus ATCC 25923) was 15 to 25 µM (≈ 4.61 to 7.69 µg/mL) and the inhibition at 5 µM (S. aureus ATCC 25923 [2]; 5 µM, read-out: Average inhibition %, biofilms biomass) was 33.6 ± 16%. The inhibition at 5 µM (S. aureus ATCC 25923 [2]; 5 µM, read-out: Average inhibition %, planktonic cells turbidity) was 25.6 ± 36.8%, the inhibition at 10 µM (S. aureus ATCC 25923 [2]; [7]) was 29.2 ± 14.5% and the inhibition at 10 µM (S. aureus ATCC 25923 [2]; [8]) was 36.2 ± 26.1%. The inhibition at 15 µM (S. aureus ATCC 25923 [2]; [9]) was 66.4 ± 27.2%, the inhibition at 15 µM (S. aureus ATCC 25923 [2]; [10]) was 61.4 ± 37.8% and the inhibition at 25 µM (S. aureus ATCC 25923 [2]; [11]) was 92.2 ± 6.9%. For the same compound, the inhibition at 25 µM (S. aureus ATCC 25923 [2]; [12]) was 98.9 ± 0.6%, the MIC (S. aureus ATCC 25923 [2]; read-out: MIC (S. aureus)) was 15 to 25 µM (≈ 4.61 to 7.69 µg/mL) and the “Average inhibition %, biofilms viability” value (S. aureus ATCC 25923 [2]; 5 µM) was 17.4 ± 8.1%. The “Average inhibition %, planktonic cells viability” value (S. aureus ATCC 25923 [2]; 5 µM) was 12.3 ± 21.4%, the “Average inhibition %, biofilms viability” value (S. aureus ATCC 25923 [2]; 10 µM) was 29.1 ± 5.4% and the “Average inhibition %, planktonic cells viability” value (S. aureus ATCC 25923 [2]; 10 µM) was 14.8 ± 15.3%. For the same compound, the “Average inhibition %, biofilms viability” value (S. aureus ATCC 25923 [2]; 15 µM) was 52.5 ± 43.2%, the “Average inhibition %, planktonic cells viability” value (S. aureus ATCC 25923 [2]; 15 µM) was 36.1 ± 55.2% and the “Average inhibition %, biofilms viability” value (S. aureus ATCC 25923 [2]; 25 µM) was 99.7 ± 0%. For the same compound, the “Average inhibition %, planktonic cells viability” value (S. aureus ATCC 25923 [2]; 25 µM) was 99.9 ± 0.2%, the “Average inhibition %, biofilms viability” value (A. baumannii NCTC 13423; 10 µM) was 0.2 ± 0.4% and the “Average inhibition %, planktonic cells viability” value (A. baumannii NCTC 13423; 10 µM) was 5.5 ± 0.6%. For the same compound, the “Average inhibition %, biofilms viability” value (A. baumannii NCTC 13423; 15 µM) was 99.2 ± 1.1%, the “Average inhibition %, planktonic cells viability” value (A. baumannii NCTC 13423; 15 µM) was 99.8 ± 0.1% and the “Average inhibition %, biofilms viability” value (A. baumannii NCTC 13423; 25 µM) was 100 ± 1.1%. For the same compound, the “Average inhibition %, planktonic cells viability” value (A. baumannii NCTC 13423; 25 µM) was 99.8 ± 0.2%, the “Average inhibition %, biofilms viability” value (A. baumannii NCTC 13423; 50 µM) was 98.7 ± 2.5% and the “Average inhibition %, planktonic cells viability” value (A. baumannii NCTC 13423; 50 µM) was 99.8 ± 0.1%. For the same compound, the inhibition at 10 µM (A. baumannii NCTC 13423; [7]) was 0.6 ± 1%, the inhibition at 10 µM (A. baumannii NCTC 13423; [8]) was 0% and the inhibition at 15 µM (A. baumannii NCTC 13423; [9]) was 76.9 ± 3.5%. It also gave an inhibition at 15 µM (A. baumannii NCTC 13423; [10]) of 99.1 ± 1.1%, an inhibition at 25 µM (A. baumannii NCTC 13423; [11]) of 81.7 ± 1% and an inhibition at 25 µM (A. baumannii NCTC 13423; [12]) of 99.1 ± 1%. For the same compound, the inhibition at 50 µM (A. baumannii NCTC 13423; [3]) was 79 ± 3.8%, the inhibition at 50 µM (A. baumannii NCTC 13423; [4]) was 98.3 ± 0.9% and the MIC (A. baumannii NCTC 13423; pre-exposure, Inactive = no activity up to 50 μM, > = some inhibition but no MIC reached, read-out: MIC A. baumannii NCTC 13423) was 15 µM (≈ 4.61 µg/mL). The MIC (A. baumannii NCTC 13423; supplementary molecular formula strings sheet, read-out: MIC (A. baumannii)) was 15 µM (≈ 4.61 µg/mL).
